Results published in the NIST ThermoML archive (doi:10.1016/j.fluid.2006.03.015).
Numbers after ± are expanded uncertainties.

Assay: molar heat capacity at constant pressure
Details: 101.33 kPa, Liquid
[1] = 315.15 K, Small sample (50 mg) DSC
[2] = 320.15 K, Small sample (50 mg) DSC
[3] = 325.15 K, Small sample (50 mg) DSC
[4] = 330.15 K, Small sample (50 mg) DSC
[5] = 335.15 K, Small sample (50 mg) DSC
[6] = 340.15 K, Small sample (50 mg) DSC
[7] = 345.15 K, Small sample (50 mg) DSC
[8] = 350.15 K, Small sample (50 mg) DSC
[9] = 355.15 K, Small sample (50 mg) DSC
[10] = 360.15 K, Small sample (50 mg) DSC
[11] = 365.15 K, Small sample (50 mg) DSC
[12] = 370.15 K, Small sample (50 mg) DSC
[13] = 305.15 K, Small sample (50 mg) DSC
[14] = 310.15 K, Small sample (50 mg) DSC

CCCCCCn1cc[n+](C)c1.O=S(=O)([O-])C(F)(F)F [1-hexyl-3-methylimidazolium trifluoromethanesulfonate]
molar heat capacity at constant pressure (313.14 K, Large sample (1 g) DSC): 517 ± 27 J/K/mol
molar heat capacity at constant pressure [1]: 526 ± 27 J/K/mol
molar heat capacity at constant pressure (318.15 K, Large sample (1 g) DSC): 522 ± 27 J/K/mol
molar heat capacity at constant pressure [2]: 528 ± 27 J/K/mol
molar heat capacity at constant pressure (323.17 K, Large sample (1 g) DSC): 525 ± 27 J/K/mol
molar heat capacity at constant pressure [3]: 530 ± 28 J/K/mol
molar heat capacity at constant pressure (328.13 K, Large sample (1 g) DSC): 527 ± 27 J/K/mol
molar heat capacity at constant pressure (328.15 K, modulated-temperature differential scanning calorimetry MDSC): 519 ± 26 J/K/mol
molar heat capacity at constant pressure [4]: 532 ± 28 J/K/mol
molar heat capacity at constant pressure (333.15 K, Large sample (1 g) DSC): 528 ± 27 J/K/mol
molar heat capacity at constant pressure (333.15 K, modulated-temperature differential scanning calorimetry MDSC): 522 ± 26 J/K/mol
molar heat capacity at constant pressure [5]: 536 ± 28 J/K/mol
molar heat capacity at constant pressure (338.15 K, modulated-temperature differential scanning calorimetry MDSC): 524 ± 26 J/K/mol
molar heat capacity at constant pressure (338.16 K, Large sample (1 g) DSC): 531 ± 28 J/K/mol
molar heat capacity at constant pressure [6]: 539 ± 28 J/K/mol
molar heat capacity at constant pressure (343.15 K, modulated-temperature differential scanning calorimetry MDSC): 528 ± 26 J/K/mol
molar heat capacity at constant pressure (343.16 K, Large sample (1 g) DSC): 534 ± 28 J/K/mol
molar heat capacity at constant pressure [7]: 541 ± 28 J/K/mol
molar heat capacity at constant pressure (348.15 K, modulated-temperature differential scanning calorimetry MDSC): 530 ± 27 J/K/mol
molar heat capacity at constant pressure (348.16 K, Large sample (1 g) DSC): 535 ± 28 J/K/mol
molar heat capacity at constant pressure [8]: 545 ± 28 J/K/mol
molar heat capacity at constant pressure (353.15 K, modulated-temperature differential scanning calorimetry MDSC): 532 ± 27 J/K/mol
molar heat capacity at constant pressure (353.18 K, Large sample (1 g) DSC): 539 ± 28 J/K/mol
molar heat capacity at constant pressure [9]: 548 ± 28 J/K/mol
molar heat capacity at constant pressure (358.12 K, Large sample (1 g) DSC): 542 ± 28 J/K/mol
molar heat capacity at constant pressure (358.15 K, modulated-temperature differential scanning calorimetry MDSC): 535 ± 27 J/K/mol
molar heat capacity at constant pressure [10]: 551 ± 29 J/K/mol
molar heat capacity at constant pressure (363.15 K, modulated-temperature differential scanning calorimetry MDSC): 538 ± 27 J/K/mol
molar heat capacity at constant pressure (363.17 K, Large sample (1 g) DSC): 545 ± 28 J/K/mol
molar heat capacity at constant pressure [11]: 554 ± 29 J/K/mol
molar heat capacity at constant pressure (368.15 K, Large sample (1 g) DSC): 548 ± 28 J/K/mol
molar heat capacity at constant pressure (368.15 K, modulated-temperature differential scanning calorimetry MDSC): 540 ± 27 J/K/mol
molar heat capacity at constant pressure [12]: 556 ± 29 J/K/mol
molar heat capacity at constant pressure (373.15 K, modulated-temperature differential scanning calorimetry MDSC): 543 ± 27 J/K/mol
molar heat capacity at constant pressure (373.17 K, Large sample (1 g) DSC): 550 ± 29 J/K/mol
molar heat capacity at constant pressure (375.15 K, Small sample (50 mg) DSC): 559 ± 29 J/K/mol
molar heat capacity at constant pressure (378.15 K, modulated-temperature differential scanning calorimetry MDSC): 544 ± 27 J/K/mol
molar heat capacity at constant pressure (378.17 K, Large sample (1 g) DSC): 552 ± 29 J/K/mol
molar heat capacity at constant pressure (380.15 K, Small sample (50 mg) DSC): 562 ± 29 J/K/mol
molar heat capacity at constant pressure (383.15 K, modulated-temperature differential scanning calorimetry MDSC): 547 ± 27 J/K/mol
molar heat capacity at constant pressure (383.17 K, Large sample (1 g) DSC): 555 ± 29 J/K/mol
molar heat capacity at constant pressure (385.15 K, Small sample (50 mg) DSC): 565 ± 29 J/K/mol
molar heat capacity at constant pressure (388.15 K, modulated-temperature differential scanning calorimetry MDSC): 549 ± 27 J/K/mol
molar heat capacity at constant pressure (388.16 K, Large sample (1 g) DSC): 558 ± 29 J/K/mol
molar heat capacity at constant pressure (390.15 K, Small sample (50 mg) DSC): 568 ± 30 J/K/mol
molar heat capacity at constant pressure (393.15 K, Large sample (1 g) DSC): 560 ± 29 J/K/mol
molar heat capacity at constant pressure (393.15 K, modulated-temperature differential scanning calorimetry MDSC): 552 ± 28 J/K/mol
molar heat capacity at constant pressure (395.15 K, Small sample (50 mg) DSC): 571 ± 30 J/K/mol
molar heat capacity at constant pressure (398.15 K, modulated-temperature differential scanning calorimetry MDSC): 554 ± 28 J/K/mol
molar heat capacity at constant pressure (398.18 K, Large sample (1 g) DSC): 562 ± 29 J/K/mol
molar heat capacity at constant pressure (400.15 K, Small sample (50 mg) DSC): 574 ± 30 J/K/mol
molar heat capacity at constant pressure (403.15 K, modulated-temperature differential scanning calorimetry MDSC): 556 ± 28 J/K/mol
molar heat capacity at constant pressure (403.16 K, Large sample (1 g) DSC): 564 ± 29 J/K/mol
molar heat capacity at constant pressure (405.15 K, Small sample (50 mg) DSC): 577 ± 30 J/K/mol
molar heat capacity at constant pressure (408.13 K, Large sample (1 g) DSC): 566 ± 29 J/K/mol
molar heat capacity at constant pressure (408.15 K, modulated-temperature differential scanning calorimetry MDSC): 557 ± 28 J/K/mol
molar heat capacity at constant pressure (410.15 K, Small sample (50 mg) DSC): 580 ± 30 J/K/mol
molar heat capacity at constant pressure (413.15 K, modulated-temperature differential scanning calorimetry MDSC): 562 ± 28 J/K/mol
molar heat capacity at constant pressure (413.16 K, Large sample (1 g) DSC): 569 ± 30 J/K/mol
molar heat capacity at constant pressure (415.15 K, Small sample (50 mg) DSC): 583 ± 30 J/K/mol
molar heat capacity at constant pressure (418.15 K, Large sample (1 g) DSC): 573 ± 30 J/K/mol
molar heat capacity at constant pressure (420.15 K, Small sample (50 mg) DSC): 586 ± 30 J/K/mol
molar heat capacity at constant pressure (423.17 K, Large sample (1 g) DSC): 572 ± 30 J/K/mol
molar heat capacity at constant pressure (425.15 K, Small sample (50 mg) DSC): 589 ± 31 J/K/mol

C1CCOC1 [tetrahydrofuran]
molar heat capacity at constant pressure (180.15 K, Small sample (50 mg) DSC): 105.5 ± 5.5 J/K/mol
molar heat capacity at constant pressure (185.15 K, Small sample (50 mg) DSC): 105.6 ± 5.5 J/K/mol
molar heat capacity at constant pressure (190.15 K, Small sample (50 mg) DSC): 105.8 ± 5.5 J/K/mol
molar heat capacity at constant pressure (195.15 K, Small sample (50 mg) DSC): 106 ± 5.5 J/K/mol
molar heat capacity at constant pressure (200.15 K, Small sample (50 mg) DSC): 106.3 ± 5.5 J/K/mol
molar heat capacity at constant pressure (205.15 K, Small sample (50 mg) DSC): 106.5 ± 5.5 J/K/mol
molar heat capacity at constant pressure (210.15 K, Small sample (50 mg) DSC): 106.7 ± 5.5 J/K/mol
molar heat capacity at constant pressure (215.15 K, Small sample (50 mg) DSC): 107.2 ± 5.6 J/K/mol
molar heat capacity at constant pressure (220.15 K, Small sample (50 mg) DSC): 107.6 ± 5.6 J/K/mol
molar heat capacity at constant pressure (225.15 K, Small sample (50 mg) DSC): 107.9 ± 5.6 J/K/mol
molar heat capacity at constant pressure (230.15 K, Small sample (50 mg) DSC): 108.5 ± 5.6 J/K/mol
molar heat capacity at constant pressure (235.15 K, Small sample (50 mg) DSC): 109.2 ± 5.7 J/K/mol
molar heat capacity at constant pressure (240.15 K, Small sample (50 mg) DSC): 109.8 ± 5.7 J/K/mol
molar heat capacity at constant pressure (245.15 K, Small sample (50 mg) DSC): 110.6 ± 5.7 J/K/mol
molar heat capacity at constant pressure (250.15 K, Small sample (50 mg) DSC): 111.5 ± 5.8 J/K/mol
molar heat capacity at constant pressure (255.15 K, Small sample (50 mg) DSC): 112.4 ± 5.8 J/K/mol
molar heat capacity at constant pressure (260.15 K, Small sample (50 mg) DSC): 113.4 ± 5.9 J/K/mol
molar heat capacity at constant pressure (265.15 K, Small sample (50 mg) DSC): 114.4 ± 5.9 J/K/mol
molar heat capacity at constant pressure (270.15 K, Small sample (50 mg) DSC): 115.5 ± 6 J/K/mol
molar heat capacity at constant pressure (275.15 K, Small sample (50 mg) DSC): 116.6 ± 6.1 J/K/mol
molar heat capacity at constant pressure (280.15 K, Small sample (50 mg) DSC): 117.9 ± 6.1 J/K/mol
molar heat capacity at constant pressure (285.15 K, Small sample (50 mg) DSC): 119.2 ± 6.2 J/K/mol
molar heat capacity at constant pressure (290.15 K, Small sample (50 mg) DSC): 120.3 ± 6.3 J/K/mol
molar heat capacity at constant pressure (295.15 K, Small sample (50 mg) DSC): 121.7 ± 6.3 J/K/mol
molar heat capacity at constant pressure (300.15 K, Small sample (50 mg) DSC): 123.1 ± 6.4 J/K/mol
molar heat capacity at constant pressure [13]: 124.5 ± 6.5 J/K/mol
molar heat capacity at constant pressure [14]: 126 ± 6.5 J/K/mol
molar heat capacity at constant pressure [1]: 127.3 ± 6.6 J/K/mol
molar heat capacity at constant pressure [2]: 128.8 ± 6.7 J/K/mol
molar heat capacity at constant pressure [3]: 130.5 ± 6.8 J/K/mol

O [water]
molar heat capacity at constant pressure [13]: 74.95 ± 3.9 J/K/mol
molar heat capacity at constant pressure [14]: 74.96 ± 3.9 J/K/mol
molar heat capacity at constant pressure [1]: 74.9 ± 3.9 J/K/mol
molar heat capacity at constant pressure [2]: 74.93 ± 3.9 J/K/mol
molar heat capacity at constant pressure [3]: 75.01 ± 3.9 J/K/mol
molar heat capacity at constant pressure [4]: 75.09 ± 3.9 J/K/mol
molar heat capacity at constant pressure [5]: 75.11 ± 3.9 J/K/mol
molar heat capacity at constant pressure [6]: 75.23 ± 3.9 J/K/mol
molar heat capacity at constant pressure [7]: 75.31 ± 3.9 J/K/mol
molar heat capacity at constant pressure [8]: 75.43 ± 3.9 J/K/mol
molar heat capacity at constant pressure [9]: 75.53 ± 3.9 J/K/mol
molar heat capacity at constant pressure [10]: 75.59 ± 3.9 J/K/mol
molar heat capacity at constant pressure [11]: 75.72 ± 3.9 J/K/mol
molar heat capacity at constant pressure [12]: 75.8 ± 3.9 J/K/mol
